In US8501778B2, “Aralkyl piperidine derivatives and their uses as antalgic or ataractic agent” (priority 2008, dated 2013) one finds inhibition in vivo data, which are given here for 43 compounds.

SMILES strings stand for the structures. Where a name gives a salt, the structure may show the parent alone.

One assay has as its system Kunming mice. The assay is described as follows: Acetic Acid Twisting Method in mice (antalgic effect). It is filed as in vivo. As to conditions: Mus musculus, po; 20 mg/kg, gavage administration, mice; read-out: twisting response inhibiting rate (%).
`CC(=O)Oc1ccccc1C(=O)O` [Aspirin, reference compound]: the inhibition in vivo at 20 mg/kg was determined as 90%.

Still in this assay, the particulars now being: Mus musculus, sc, read-out: antalgic.
In the case of `CC(c1ccccc1)N1CCC(O)(CC(=O)c2ccccc2)CC1` (stereo not shown) [III-16, N-(1-phenylethyl)-4-benzoylmethyl-4-piperidinol hydrochloride], the inhibition in vivo at 20 mg/kg came out at 33%. The same measure, in the same setting: the value for `O=C(CC1(F)CCN(Cc2ccc3c(c2)OCO3)CC1)c1ccccc1` [IX-2, N-(benzo[d][1,3]dioxol-5-ylmethyl)-4-benzoylmethyl-4-fluoropiperidine hydrochloride] was 45%; that for `OC(CC1(O)CCN(Cc2ccc3c(c2)CCN3)CC1)c1ccccc1` (stereo not shown) [Compound V-6, N-(5-indolinyl)methyl-4-(2-hydroxy-2-phenylethyl)-4-piperidinol hydrochloride] was 69%. On the same count and under the same terms, the value for `O=C(CC1(O)CCN(Cc2ccccn2)CC1)c1ccccc1` [III-8, N-(2-pyridyl)methyl-4-benzoylmethyl-4-piperidinol hydrochloride] was 77%.

For the compound `CC(c1ccc(N)cc1)N1CCC(O)(CC(=O)c2ccccc2)CC1` (stereo not shown) [III-21, N-(1-(4-aminophenyl)ethyl)-4-benzoylmethyl-4-piperidinol hydrochloride], the inhibition in vivo at 20 mg/kg came to 57%. Still for that read-out and setting: the result for `O=C(CC1(O)CCN(Cc2ccc3c(c2)CCN3)CC1)c1ccccc1` [III-30, N-(5-indolinyl)methyl-4-benzoylmethyl-4-piperidinol hydrochloride] reads 42%; that for `O=C(CC1(O)CCN(Cc2ccccc2)CC1)c1ccc2c(c1)OCO2` [III-38, N-benzyl-4-(2-(benzo[d][1,3]dioxol-5-yl)-2-oxoethyl)-4-piperidinol hydrochloride], 46%. On the same count and under the same terms, the value for `COc1cc(CN2CCC(O)(CC(=O)c3ccccc3)CC2)cc(OC)c1OC` [III-14, N-(3,4,5-trimethoxybenzyl)-4-benzoylmethyl-4-piperidinol hydrochloride] was 54%; that for `CC(c1ccc(N2CCCC2)cc1)N1CCC(F)(CC(=O)c2ccccc2)CC1` (stereo not shown) [IX-4, N-(1-(4-(pyrrolidinyl)phenyl)ethyl)-4-benzoylmethyl-4-fluoropiperidine hydrochloride] was 64%; that for `O=C(CC1(O)CCN(Cc2ccc(N3CCOCC3)cc2)CC1)c1ccccc1` [III-26, N-(4-morpholinobenzyl)-4-benzoylmethyl-4-piperidinol hydrochloride] was 64%.

On to `COc1ccc(C(C)N2CCC(O)(CC(=O)c3ccccc3)CC2)cc1` (stereo not shown) [III-19, N-(1-(4-methoxyphenyl)ethyl)-4-benzoylmethyl-4-piperidinol hydrochloride], for which the inhibition in vivo at 20 mg/kg was found to be 91%.

For `O=C1Cc2cc(CN3CCC(O)(CC(=O)c4ccccc4)CC3)ccc2N1` [III-29, N-(2-oxo-5-indolinyl)methyl-4-benzoylmethyl-4-piperidinol hydrochloride], the inhibition in vivo at 20 mg/kg was determined as 45%. Consider `O=C(CC1(O)CCN(Cc2ccccc2)CC1)c1ccc(N2CCCC2)cc1` [III-35, N-benzyl-4-(4-(pyrrolidinyl)benzoylmethyl)-4-piperidinol hydrochloride], for which the inhibition in vivo at 20 mg/kg was determined as 64%. Consider `CC(c1ccc(N2CCCC2)cc1)N1CCC(O)(CC(=O)c2ccccc2)CC1` (stereo not shown) [III-25, N-(1-(4-(1-pyrrolidinyl)phenyl)ethyl)-4-benzoylmethyl-4-piperidinol hydrochloride], for which the inhibition in vivo at 20 mg/kg is 80%. Same read-out and setting: the value for `O=C(CC1(O)CCN(Cc2ccccc2)CC1)c1ccc2c(c1)CCN2` [III-37, N-benzyl-4-(2-(5-indolinyl)-2-oxoethyl)-4-piperidinol hydrochloride] was 52%; that for `COc1ccccc1N1CCC(O)(CC(=O)c2ccccc2)CC1` [III-12, N-(2′-methoxyphenyl)-4-benzoylmethyl-4-piperidinol hydrochloride] was 21%. Same read-out and setting: the value for `O=C(CC1(O)CCN(Cc2ccc(N3CCCC3)cc2)CC1)c1ccccc1` [III-24, N-(4-(1-pyrrolidinyl)benzyl)-4-benzoylmethyl-4-piperidinol hydrochloride] was 62%; that for `O=C(CC1(O)CCN(Cc2ccc(Cl)cc2)CC1)c1ccccc1` [III-2, N-p-chlorobenzyl-4-benzoylmethyl-4-piperidinol hydrochloride] was 14%.

Regarding `O=C(CC1(O)CCN(Cc2ccc3c(c2)OCO3)CC1)c1ccccc1` [III-13, N-(benzo[d][1,3]dioxol-5-ylmethyl)-4-benzoylmethyl-4-piperidinol hydrochloride], the inhibition in vivo at 20 mg/kg amounted to 37%. Regarding `CC(c1ccc(F)cc1)N1CCC(O)(CC(=O)c2ccccc2)CC1` (stereo not shown) [III-20, N-(1-(4-fluorophenyl)ethyl)-4-benzoylmethyl-4-piperidinol hydrochloride], the inhibition in vivo at 20 mg/kg was found to be 37%.

As for `COc1ccc(C(C)N2CCC(Cl)(CC(=O)c3ccccc3)CC2)cc1` (stereo not shown) [IX-5, N-(1-(p-methoxyphenyl)ethyl)-4-benzoylmethyl-4-chloropiperidine hydrochloride], the inhibition in vivo at 20 mg/kg was found to be 68%.

As to `CC(C(=O)c1ccccc1)C1(O)CCN(Cc2ccccc2)CC1` (stereo not shown) [III-39, N-benzyl-4-(1-benzoylethyl)-4-piperidinol hydrochloride], the inhibition in vivo at 20 mg/kg turned out to be 56%. Still for that read-out and setting: the value for `COc1ccccc1N1CCC(O)(CC(O)c2ccccc2)CC1` (stereo not shown) [Compound V-5, N-(2-methoxyphenyl)-4-(2-hydroxy-2-phenylethyl)-4-piperidinol hydrochloride] was 72%. The same measure, in the same setting: the value for `O=C(CC1(O)CCN(Cc2ccccc2)CC1)c1ccccn1` [III-34, N-benzyl-4-(2-pyridinylformylmethyl)-4-piperidinol hydrobromide] was 75%; that for `O=C(CC1(O)CCN(Cc2ncccn2)CC1)c1ccccc1` [III-10, N-(2-pyrimidinyl)methyl-4-benzoylmethyl-4-piperidinol hydrochloride] was 51%; that for `O=C(CC1(Cl)CCN(Cc2ccc3c(c2)OCO3)CC1)c1ccccc1` [IX-6, N-(benzo[d][1,3]dioxol-5-ylmethyl)-4-benzoylmethyl-4-chloropiperidine hydrochloride] was 59%. Regarding `CC(c1ccc(N2CCOCC2)cc1)N1CCC(O)(CC(O)c2ccccc2)CC1` (stereo not shown) [Compound V-8, N-(1-(4-morpholinophenyl)ethyl)-4-(2-hydroxy-2-phenylethyl)-4-piperidinol hydrochloride], the inhibition in vivo at 20 mg/kg came to 77%. As to `CC(c1ccc(N2CCOCC2)cc1)N1CCC(O)(CC(=O)c2ccccc2)CC1` (stereo not shown) [III-27, N-(1-(4-morpholinophenyl)ethyl)-4-benzoylmethyl-4-piperidinol hydrochloride], the inhibition in vivo at 20 mg/kg was found to be 92%. On the same count and under the same terms, the result for `CC(c1ccc(N2CCOCC2)cc1)N1CCC(F)(CC(=O)c2ccccc2)CC1` (stereo not shown) [IX-3, N-(1-(4-morpholinophenyl)ethyl)-4-benzoylmethyl-4-fluoropiperidine hydrochloride] reads 64%; that for `O=C(CC1(O)CCN(c2ncccn2)CC1)c1ccccc1` [III-9, N-(2-pyrimidinyl)-4-benzoylmethyl-4-piperidinol hydrochloride], 57%. Same read-out and setting: the value for `COc1ccc(C(C)N2CCC(CC(=O)c3ccccc3)(OC)CC2)cc1` (stereo not shown) [VIII-2, N-(1-(p-methoxyphenyl)ethyl)-4-benzoylmethyl-4-methoxylpiperidine hydrochloride] was 76%. On the same count and under the same terms, the value for `C[C@H](c1ccccc1)N1CCC(O)(CC(=O)c2ccccc2)CC1` [III-17, (R)—N-(1-phenylethyl)-4-benzoylmethyl-4-piperidinol hydrochloride] was 66%. Turning to `O=C(CC1(O)CCN(Cc2ccccc2)CC1)c1ccc(Cl)cc1` [III-33, N-benzyl-4-(p-chlorobenzoylmethyl)-4-piperidinol hydrobromide], the inhibition in vivo at 20 mg/kg was 26%. On to `OC(CC1(O)CCN(Cc2ccc3c(c2)OCO3)CC1)c1ccccc1` (stereo not shown) [Compound V-4, N-(benzo[d][1,3]dioxol-5-ylmethyl)-4-(2-hydroxy-2-phenylethyl)-4-piperidinol hydrochloride], for which the inhibition in vivo at 20 mg/kg was 76%. The same measure, in the same setting: the result for `O=C(CC1(O)CCN(c2ccc3ccccc3n2)CC1)c1ccccc1` [III-11, N-(2-quinolyl)-4-benzoylmethyl-4-piperidinol hydrochloride] reads 44%; that for `CC(c1ccc2c(c1)OCO2)N1CCC(O)(CC(=O)c2ccccc2)CC1` (stereo not shown) [III-22, N-(1-(benzo[d][1,3]dioxol-5-yl)ethyl)-4-benzoylmethyl-4-piperidinol hydrochloride], 43%; that for `COc1ccc(C(=O)CC2(O)CCN(Cc3ccccc3)CC2)cc1` [III-32, N-benzyl-4-(p-methoxybenzoylmethyl)-4-piperidinol hydrobromide], 49%.

Turning to `COc1ccc(CN2CCC(O)(CC(O)c3ccccc3)CC2)cc1` (stereo not shown) [Compound V-1, N-p-methoxybenzyl-4-(2-hydroxy-2-phenylethyl)-4-piperidinol hydrochloride], the inhibition in vivo at 20 mg/kg was 76%. Still for that read-out and setting: the result for `COC1(CC(=O)c2ccccc2)CCN(C(C)c2ccc(N3CCOCC3)cc2)CC1` (stereo not shown) [VIII-3, N-(1-(4-morpholinophenyl)ethyl)-4-benzoylmethyl-4-methoxylpiperidine hydrochloride] reads 60%. Still for that read-out and setting: the value for `O=C(CC1(O)CCN(Cc2ccc(N3CCCCC3)cc2)CC1)c1ccccc1` [III-28, N-(4-(1-piperidinyl)benzyl)-4-benzoylmethyl-4-piperidinol hydrochloride] was 64%. The same measure, in the same setting: the value for `C[C@@H](c1ccccc1)N1CCC(O)(CC(=O)c2ccccc2)CC1` [III-18, (S)—N-(1-phenylethyl)-4-benzoylmethyl-4-piperidinol hydrochloride] was 84%; that for `O=C(CC1(O)CCN(Cc2ccccc2)CC1)c1ccc(N2CCOCC2)cc1` [III-36, N-benzyl-4-((4-morpholinobenzoyl)methyl)-4-piperidinol hydrochloride] was 41%.
